From patent publication US10793542B2, “Hetroarylamine compounds for modulating the hedgehog pathway and preparing method and uses thereof” (DEVELOPMENT CENTER FOR BIOTECHNOLOGY, priority 2016, dated 2020)

Experiments:
Type in all cases: cell-based
[1] = tested on: hedgehog pathway (pGL3-7xGli-Luciferase reporter in C3H10T1/2 cells); test: Transient transfection of C3H10T1/2 and Gli-Luc reporter assay with SAG stimulation; details: Mus musculus, C3H 10T1/2, SAG 20 nM, 48 hr, read-out: Inhibition of Gli-Luc expression [IC50
Procedure: A cell-based screen for inhibitors of the hedgehog pathway was performed using a transient transfection system in C3H10T1/2 cells with pGL3-7xGli-Luciferase reporter plasmids C3H10T1/2 cells (ATCC, cat.#CCL-226) were seeded into 6-well plates at 8×10^4 cells/well in a BME medium containing 10% heat-inactivated FBS. Cells were transfected the next morning with 500 ng/well pGL3-7xGli-Luciferase reporter plasmids and 100 ng/well pRL-TK Renilla luciferase reporter plasmids (Promega)using GeneJuice transfection reagent (Novagene). After 24 h, transfected cells were collected by trypsin treatment and re-plated in 96-well plates in an RPMI medium containing 0.5% FBS with a density of 1.5×10^4 cells/well. Compounds were dissolved in DMSO with serial dilutions and were then added to the assay plate. SAG (Hh-Ag 1.3) (Santa Cruz) was added to the assay plated for a final concentration 20 nM. The assay plates were incubated at 37° C. for 48 hr.
(§1) Firefly luciferase and Renilla luciferase activity was determined using the Dual-Glo Luciferase reporter assay system (Promega) with a Victor3 plate reader (PerkinElmer Life Sciences). Firefly luciferase readings were normalized to Renilla luciferase to correct for transfection efficiency. Luminance reading for the C3H10T1/2-Gli-Luc assay was normalized based on DMSO control with SAG stimulation (100% pathway activity) and without SAG stimulation (0% pathway activity). IC50 values, defined as the inflection point of the logistic curve, were determined by nonlinear regression using the Prism 5 software (GraphPad).

Smo D473H mutant = biological target: T1, Smo D473H mutant (Homo sapiens, UniProt Q99835, D473H); test: Reporter assay of C3H10T1/2-Gli-Luc cells transfected with Smo D473H mutant, without SAG; details: C3H10T1/2 cells transfected with pLPCX-SMO-D473H, no SAG, 48 hr; read-out: Inhibition of C3H10T1/2-Gli-Luc-Smo-D473H [IC50
T1 construct: expressed in transfected cells; host or cells: C3H10T1/2 cells (ATCC CCL-226), transient transfection with pLPCX-SMO-D473H
Procedure: (§2) A transient transfection system with a Smo wild type or a Smo D473H mutant was also used for compound screening. For the SMO inhibition experiments, cells were transfected with an additional 500 ng/well of wild-type or D473H-mutant type SMO construct (pLPCX-SMO or pLPCX-SMO-D473H). After 24 h, transfected cells were collected by trypsin treatment and re-plated in 96-well plates in an RPMI medium containing 0.5% FBS with a density of 1.5×10^4 cells/well. Compounds were dissolved in DMSO with serial dilutions and were then added to the assay plate. The assay plates were incubated at 37° C. for 48 hr.
as §1
(§3) The reporter assay of C3H10T1/2-Gli-Luc cells transfected with a wild-type, D473H mutant Smo mutant was carried out with the same protocol but without SAG stimulation. Luminance reading for the SMO inhibition experiments assay was normalized based on DMSO control (100% of the pathway activity) and a known Smo antagonist (ALLO-2 at 10 μM, 0% of the pathway activity).

Smo wild type = biological target: T2, Smo wild type (Homo sapiens, UniProt Q99835); test: Reporter assay of C3H10T1/2-Gli-Luc cells transfected with wild-type Smo, without SAG; details: C3H10T1/2 cells transfected with pLPCX-SMO, no SAG, 48 hr; read-out: Inhibition of C3H10T1/2-Gli-Luc-Smo-WT [IC50
T2 construct: expressed in transfected cells; host or cells: C3H10T1/2 cells (ATCC CCL-226), transient transfection with pLPCX-SMO
Procedure: as §2, §1, §3

T1 sequence (Q99835 28-787 D473H): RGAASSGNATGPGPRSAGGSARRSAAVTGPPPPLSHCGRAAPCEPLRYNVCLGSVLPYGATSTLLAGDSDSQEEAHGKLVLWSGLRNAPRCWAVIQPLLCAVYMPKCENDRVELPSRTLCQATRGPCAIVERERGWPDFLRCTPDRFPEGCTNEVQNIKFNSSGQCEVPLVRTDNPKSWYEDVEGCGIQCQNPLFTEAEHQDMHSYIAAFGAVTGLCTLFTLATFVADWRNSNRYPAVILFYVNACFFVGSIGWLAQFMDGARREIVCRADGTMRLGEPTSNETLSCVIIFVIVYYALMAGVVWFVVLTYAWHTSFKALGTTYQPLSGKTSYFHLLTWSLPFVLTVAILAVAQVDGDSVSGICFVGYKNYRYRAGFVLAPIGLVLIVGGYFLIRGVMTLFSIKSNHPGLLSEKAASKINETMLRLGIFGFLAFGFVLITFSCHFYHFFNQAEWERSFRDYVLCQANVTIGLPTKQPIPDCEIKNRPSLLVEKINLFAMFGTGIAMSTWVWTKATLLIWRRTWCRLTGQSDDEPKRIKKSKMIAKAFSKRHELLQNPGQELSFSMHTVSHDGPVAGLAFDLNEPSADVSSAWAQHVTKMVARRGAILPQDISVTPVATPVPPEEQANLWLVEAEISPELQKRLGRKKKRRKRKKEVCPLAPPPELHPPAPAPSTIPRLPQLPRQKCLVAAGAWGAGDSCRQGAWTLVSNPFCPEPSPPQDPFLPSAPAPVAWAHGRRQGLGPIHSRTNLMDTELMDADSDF
T2 sequence (Q99835 28-787): as the sequence (Q99835 28-787 D473H) above, with H446D counted along it

| SMILES | IC50 [1] | IC50 (Smo D473H mutant) | IC50 (Smo wild type) |
| --- | --- | --- | --- |
| CSc1cnc(Nc2ccc(C(=O)Nc3ccc(C(F)(F)F)c(Cl)c3)cc2)nc1-c1ccc(C#N)cc1 [Compound 4, N-(3-Chloro-4-trifluoromethyl-phenyl)-4-[4-(4-cyano-phenyl)-5-methylsulfanyl-pyrimidin-2-ylamino]-benzamide] | 100 to 1000 nM | 100 to 1000 nM | 100 to 1000 nM |
| CSc1cnc(Nc2ccc(C(=O)Nc3cc(CN4CCOCC4)ccc3C)cc2)nc1-c1ccccc1 [Compound 20, N-(2-Methyl-5-morpholin-4-ylmethyl-phenyl)-4-(5-methylsulfanyl-4-phenyl-pyrimidin-2-ylamino)-benzamide] | < 100 nM | 100 to 1000 nM | < 100 nM |
| CSc1cnc(Nc2ccc(C(=O)Nc3cc(CN4CCOCC4)ccc3C)cc2)nc1-c1ccc(F)nc1 [Compound 67, 4-[4-(6-Fluoro-pyridin-3-yl)-5-methylsulfanyl-pyrimidin-2-ylamino]-N-(2-methyl-5-morpholin-4-ylmethyl-phenyl)-benzamide] | < 100 nM | 100 to 1000 nM | < 100 nM |
| CSc1cnc(Nc2ccc(C(=O)Nc3cc(CN4CCOCC4)ccc3C)cc2F)nc1-c1cnn(C)c1 [Compound 45, 3-Fluoro-N-(2-methyl-5-morpholin-4-ylmethyl-phenyl)-4-[4-(1-methyl-1H-pyrazol-4-yl)-5-methylsulfanyl-pyrimidin-2-ylamino]-benzamide] | < 100 nM | < 100 nM | < 100 nM |
| CSc1cnc(Nc2ccc(C(=O)Nc3cc(CN4CCOCC4)ccc3C)cc2)nc1-c1ccncc1 [Compound 26, N-(2-Methyl-5-morpholin-4-ylmethyl-phenyl)-4-(5-methylsulfanyl-4-pyridin-4-yl-pyrimidin-2-ylamino)-benzamide] | < 100 nM | 100 to 1000 nM | < 100 nM |
| CSc1cnc(Nc2ccc(C(=O)Nc3c(C)cccc3C)cc2)nc1-c1ccc(F)cc1 [Compound 29, N-(2,6-Dimethyl-phenyl)-4-[4-(4-fluoro-phenyl)-5-methylsulfanyl-pyrimidin-2-ylamino]-benzamide] | 100 to 1000 nM | 100 to 1000 nM | 100 to 1000 nM |
| COc1cnc(Nc2ccc(C(=O)Nc3cc(CN4CCNCC4)ccc3C)cc2F)nc1-c1ccc(F)cc1 [Compound 80, 3-Fluoro-4-[4-(4-fluoro-phenyl)-5-methoxy-pyrimidin-2-ylamino]-N-(2-methyl-5-piperazin-1-ylmethyl-phenyl)-benzamide] | < 100 nM | 100 to 1000 nM | 100 to 1000 nM |
| CSc1cnc(Nc2ccc(C(=O)Nc3c(C)cccc3C)cc2)nc1-c1ccc(C#N)cc1 [Compound 2, 4-[4-(4-Cyano-phenyl)-5-methylsulfanyl-pyrimidin-2-ylamino]-N-(2,6-dimethyl-phenyl)-benzamide] | 100 to 1000 nM | 100 to 1000 nM | 100 to 1000 nM |
| CCOc1cnc(Nc2ccc(C(=O)Nc3cc(CN4CCOCC4)ccc3C)cc2)nc1-c1ccc(F)cc1 [Compound 75, 4-[5-Ethoxy-4-(4-fluoro-phenyl)-pyrimidin-2-ylamino]-N-(2-methyl-5-morpholin-4-ylmethyl-phenyl)-benzamide] | < 100 nM | 100 to 1000 nM | < 100 nM |
| CSc1cnc(Nc2ccc(C(=O)Nc3cc(CN4CCOCC4)ccc3C)cn2)nc1-c1ccc(OC(F)(F)F)cc1 [Compound 63, N-(2-Methyl-5-morpholin-4-ylmethyl-phenyl)-6-[5-methylsulfanyl-4-(4-trifluoromethoxy-phenyl)-pyrimidin-2-ylamino]-nicotinamide] | < 100 nM | < 100 nM | < 100 nM |
| CSc1cnc(Nc2ccc(C(=O)Nc3cccc(CN4CCOCC4)c3)cc2)nc1-c1ccc(OC(F)(F)F)cc1 [Compound 65, 4-[5-Methylsulfanyl-4-(4-trifluoromethoxy-phenyl)-pyrimidin-2-ylamino]-N-(3-morpholin-4-ylmethyl-phenyl)-benzamide] | < 100 nM | 100 to 1000 nM | < 100 nM |
| CSc1cnc(Nc2ccc(C(=O)Nc3cc(CN4CCOCC4)ccc3F)cc2)nc1-c1ccc(F)cc1 [Compound 71, N-(2-Fluoro-5-morpholin-4-ylmethyl-phenyl)-4-[4-(4-fluoro-phenyl)-5-methylsulfanyl-pyrimidin-2-ylamino]-benzamide] | < 100 nM | < 100 nM | < 100 nM |
| COc1cnc(Nc2ccc(C(=O)Nc3cc(CN4CCOCC4)ccc3C)cc2)nc1-c1ccc(C#N)cc1 [Compound 49, 4-[4-(4-Cyano-phenyl)-5-methoxy-pyrimidin-2-ylamino]-N-(2-methyl-5-morpholin-4-ylmethyl-phenyl)-benzamide] | 100 to 1000 nM | > 1000 nM | 100 to 1000 nM |
| CSc1cnc(Nc2ccc(C(=O)Nc3cc(CN4CCN(C)CC4)ccc3C)cc2)nc1-c1ccc(C#N)cc1 [Compound 35, 4-[4-(4-Cyano-phenyl)-5-methylsulfanyl-pyrimidin-2-ylamino]-N-[2-methyl-5-(4-methyl-piperazin-1-ylmethyl)-phenyl]-benzamide] | < 100 nM | 100 to 1000 nM | < 100 nM |
| CSc1cnc(Nc2ccc(C(=O)Nc3c(C)cccc3C)cc2)nc1-c1cccnc1F [Compound 6, N-(2,6-Dimethyl-phenyl)-4-[4-(2-fluoro-pyridin-3-yl)-5-methylsulfanyl-pyrimidin-2-ylamino]-benzamide] | < 100 nM | < 100 nM | < 100 nM |
| COc1ccc(CN2CCOCC2)cc1NC(=O)c1ccc(Nc2ncc(SC)c(-c3ccc(F)cc3)n2)cc1 [Compound 59, 4-[4-(4-Fluoro-phenyl)-5-methylsulfanyl-pyrimidin-2-ylamino]-N-(2-methoxy-5-morpholin-4-ylmethyl-phenyl)-benzamide] | 100 to 1000 nM | 100 to 1000 nM | 100 to 1000 nM |
| COc1cccc(OC)c1NC(=O)c1ccc(Nc2ncc(SC)c(-c3cccnc3F)n2)c(F)c1 [Compound 13, N-(2,6-Dimethoxy-phenyl)-3-fluoro-4-[4-(2-fluoro-pyridin-3-yl)-5-methylsulfanyl-pyrimidin-2-ylamino]-benzamide] | 100 to 1000 nM | 100 to 1000 nM | 100 to 1000 nM |
| CSc1cnc(Nc2ccc(C(=O)Nc3cc(CN(C)C)ccc3C)cc2)nc1-c1ccc(OC(F)(F)F)cc1 [Compound 54, N-(5-Dimethylaminomethyl-2-methyl-phenyl)-4-[5-methylsulfanyl-4-(4-trifluoromethoxy-phenyl)-pyrimidin-2-ylamino]-benzamide] | < 100 nM | 100 to 1000 nM | 100 to 1000 nM |
| COc1cnc(Nc2ccc(C(=O)Nc3cc(CN4CCNCC4)ccc3C)cc2)nc1-c1ccc(F)cc1 [Compound 79, 4-[4-(4-Fluoro-phenyl)-5-methoxy-pyrimidin-2-ylamino]-N-(2-methyl-5-piperazin-1-ylmethyl-phenyl)-benzamide] | < 100 nM | 100 to 1000 nM | 100 to 1000 nM |
| CSc1cnc(Nc2ccc(C(=O)Nc3ccccc3C)cc2)nc1-c1ccc(OC(F)(F)F)cc1 [Compound 23, 4-[5-Methylsulfanyl-4-(4-trifluoromethoxy-phenyl)-pyrimidin-2-ylamino]-N-o-tolyl-benzamide] | 100 to 1000 nM | 100 to 1000 nM | < 100 nM |
| COc1cnc(Nc2ccc(C(=O)Nc3cc(CN4CCN(C)CC4)ccc3C)cc2)nc1-c1ccc(OC(F)(F)F)cc1 [Compound 52, 4-[5-Methoxy-4-(4-trifluoromethoxy-phenyl)-pyrimidin-2-ylamino]-N-[2-methyl-5-(4-methyl-piperazin-1-ylmethyl)-phenyl]-benzamide] | < 100 nM | > 1000 nM | < 100 nM |
| CSc1cnc(Nc2ccc(C(=O)Nc3cc(CN4CCOCC4)ccc3C)cc2)nc1-c1ccc(C(F)(F)F)cc1 [Compound 27, N-(2-Methyl-5-morpholin-4-ylmethyl-phenyl)-4-[5-methylsulfanyl-4-(4-tiifluoromethyl-phenyl)-pyrimidin-2-ylamino]-benzamide] | < 100 nM | 100 to 1000 nM | < 100 nM |
